According to ChEMBL document CHEMBL3885861, “Open TG-GATES”:

Species: Rattus norvegicus
Assay: Open TG-GATES - Regimen: Daily Repeat
Assay type: toxicity, organism-based, Sprague-Dawley
Parameters: regimen Daily Repeat, gender Male, age 6 weeks
Conditions: in vivo, po, route gavage; for Bas / Eos / Fbg / Hb / Ht / MCHC / MCV / Mono / Neu / Plat / RBC / Ret / WBC: tissue Blood; for KIDNEY_L / KIDNEY_R / KIDNEY_TOTAL: tissue Kidney; for LIVER: tissue Liver; for ALP / AST / BUN / CRE / DBIL / GLC / K / LDH / Na / PL / RALB / TBIL / TC / TG / TP / gamma-GTP / IP: tissue Plasma
[1] = 0 mg/kg, 72 h, dose level Control, time 3 day
[2] = 0 mg/kg, […], dose level Control, time 7 day
[3] = 0 mg/kg, […], dose level Control, time 14 day
[4] = 0 mg/kg, […], dose level Control, time 28 day
[5] = 20 mg/kg, 72 h, dose level Low, time 3 day

Question: Which results are given for `CO[C@H]1/C=C/O[C@@]2(C)Oc3c(C)c(O)c4c(O)c(c(/C=N/N5CCN(C)CC5)c(O)c4c3C2=O)NC(=O)/C(C)=C\C=C\[C@H](C)[C@H](O)[C@@H](C)[C@@H](O)[C@@H](C)[C@H](OC(C)=O)[C@@H]1C` [RIFAMPIN]?
Answer: TERMINAL_BW [1]: 242.1 g; Bas [1]: 0%; Eos [1]: 1%; Fbg [1]: 239 mg/dL; Hb [1]: 13.9 g/dL; Ht [1]: 42%; MCHC [1]: 33.1%; MCV [1]: 63.9 fL; Mono [1]: 7.2%; Neu [1]: 13.8%; Plat [1]: 126 x10_4/uL; RBC [1]: 657.6 x10_4/ul; Ret [1]: 6.4%; WBC [1]: 129.1 x10_2/uL; KIDNEY_L [1]: 1 g; KIDNEY_R [1]: 1 g; KIDNEY_TOTAL [1]: 2 g; LIVER [1]: 12.4 g; ALP [1]: 966.4 IU/L; AST [1]: 62.4 IU/L; BUN [1]: 19 mg/dL; CRE [1]: 0.6 mg/dL; DBIL [1]: 0.004 mg/dL; GLC [1]: 199.2 mg/dL; K [1]: 5 meq/L; LDH [1]: 110.6 IU/L; Na [1]: 139.8 meq/L; PL [1]: 157 mg/dL; RALB [1]: 3.7 g/dL; TBIL [1]: 0.3 mg/dL; TC [1]: 83.8 mg/dL; TG [1]: 112.8 mg/dL; TP [1]: 6.1 g/dL; gamma-GTP [1]: 2 IU/L; TERMINAL_BW [2]: 275.2 g; TERMINAL_BW [3]: 316.4 g; TERMINAL_BW [4]: 390.1 g; Bas [2]: 0%; Eos [2]: 0%; Fbg [2]: 231.8 mg/dL; Hb [2]: 14.1 g/dL; Ht [2]: 42.8%; MCHC [2]: 33.1%; MCV [2]: 63.2 fL; Mono [2]: 6.2%; Neu [2]: 13.6%; Plat [2]: 107.2 x10_4/uL; RBC [2]: 677.2 x10_4/ul; Ret [2]: 5.8%; WBC [2]: 122.2 x10_2/uL; Bas [3]: 0%; Eos [3]: 0.8%; Fbg [3]: 235.6 mg/dL; Hb [3]: 15 g/dL; Ht [3]: 45%; MCV [3]: 59.6 fL; Mono [3]: 6%; Neu [3]: 11.8%; Plat [3]: 112.5 x10_4/uL; RBC [3]: 754.8 x10_4/ul; Ret [3]: 3.5%; WBC [3]: 153.6 x10_2/uL; Bas [4]: 0%; Eos [4]: 0.8%; Hb [4]: 15.7 g/dL; Ht [4]: 47%; MCHC [4]: 33.4%; MCV [4]: 58.9 fL; Mono [4]: 3%; Neu [4]: 12.4%; RBC [4]: 799.6 x10_4/ul; Ret [4]: 2.2%; KIDNEY_L [2]: 1.1 g; KIDNEY_R [2]: 1.1 g; KIDNEY_TOTAL [2]: 2.3 g; KIDNEY_L [3]: 1.2 g; KIDNEY_R [3]: 1.2 g; KIDNEY_TOTAL [3]: 2.4 g; KIDNEY_L [4]: 1.4 g; KIDNEY_R [4]: 1.4 g; KIDNEY_TOTAL [4]: 2.7 g; LIVER [2]: 13.1 g; LIVER [3]: 13.9 g; LIVER [4]: 16 g; ALP [2]: 827 IU/L; AST [2]: 68 IU/L; BUN [2]: 17.8 mg/dL; CRE [2]: 0.6 mg/dL; DBIL [2]: 0.004 mg/dL; GLC [2]: 198.6 mg/dL; IP [2]: 8.3 mg/dL; K [2]: 4.9 meq/L; LDH [2]: 108.4 IU/L; Na [2]: 140.6 meq/L; PL [2]: 150 mg/dL; RALB [2]: 3.9 g/dL; TBIL [2]: 0.3 mg/dL; TC [2]: 74.6 mg/dL; TG [2]: 132.6 mg/dL; TP [2]: 6.1 g/dL; gamma-GTP [2]: 1.8 IU/L; ALP [3]: 668.4 IU/L; AST [3]: 55.2 IU/L; BUN [3]: 18.2 mg/dL; CRE [3]: 0.6 mg/dL; DBIL [3]: 0.066 mg/dL; GLC [3]: 202.8 mg/dL; IP [3]: 7.9 mg/dL; K [3]: 5 meq/L; LDH [3]: 78.4 IU/L; Na [3]: 139.6 meq/L; PL [3]: 154.2 mg/dL; RALB [3]: 3.9 g/dL; TBIL [3]: 0.3 mg/dL; TC [3]: 68.6 mg/dL; TG [3]: 205.8 mg/dL; TP [3]: 6.3 g/dL; gamma-GTP [3]: 1.4 IU/L; ALP [4]: 557.2 IU/L; AST [4]: 56.4 IU/L; BUN [4]: 20.2 mg/dL; CRE [4]: 0.6 mg/dL; DBIL [4]: 0.014 mg/dL; GLC [4]: 179.8 mg/dL; IP [4]: 7.2 mg/dL; K [4]: 4.9 meq/L; LDH [4]: 77.2 IU/L; Na [4]: 140.6 meq/L; PL [4]: 157.4 mg/dL; RALB [4]: 4 g/dL; TBIL [4]: 0.3 mg/dL; TC [4]: 79.6 mg/dL; TG [4]: 165 mg/dL; TP [4]: 6.3 g/dL; gamma-GTP [4]: 0.8 IU/L; TERMINAL_BW [5]: 234.9 g; Bas [5]: 0%
